This series in a line: Pharmacokinetic evaluation of Bupivacaine (BU) and Formula I (1-1) in Sprague-Dawley rats (blood and brain concentrations). As to conditions: rat, male Sprague-Dawley rats, intravenous, 3 mg/kg, n=5. The format is in vivo. Here is the method: Male specific pathogen-free Sprague-Dawley rats weighing 300-350 g were obtained from the Laboratory. The animals had free access to food and water. The rat was anaesthetized with urethane 1.0 g/mL and chloralose 0.1 g/mL (1 mL/kg, i.p.) before surgery. The femoral vein was cannulated for further drug administration, and the rat's body temperature was maintained by heating pad during the experiment. All rats remained anaesthetized during the experimental period over which the Formula I (1-1) and BU concentrations in blood, brain and bile were monitored, and they were euthanized by overdose CO2 under the anaesthetic after the experimental endpoint.
Bupivacaine (3 mg/mL) was prepared in 0.9%(w/v) sodium chloride. Formula I (1-1) equivalent of BU 3 mg/mL. Rats were divided into the following groups (n=5 for each group) and received drugs intravenously: group 1 treated with (20 mg/kg) 10 min before BU (3 mg/kg) administration, group 2 treated with Formula I (1-1) (3 mg/kg).
The chromatographic system consisted of a PM-80 chromatographic pump (BAS, West Lafayette, Ind., USA), an off-line injector (CMA/140, Stockholm, Sweden) equipped with a […] sample loop injector (Rheodynemodel7125) and a UV-Vis detector (Soma, Tokyo, Japan) that operated at room temperature (25±2° C.). Separation was achieved on a LiChrosphere60RP-select B column (4.6 mm×250 mm, […], Merck). The mobile phase for plasma, brain homogenate, blood dialysate and brain dialysate was comprised of 10 mM potassium dihydrogenphosphate-acetonitrile-triethylamine (67:33:0.01), adjusted to pH4.3 with H3PO4. The mobile phase for bile dialysate consisted of 10 mM potassium dihydrogen phosphate-acetonitrile-triethylamine (60:40:0.01), adjusted to pH6.0 with H3PO4. The flow rate was set at 1.0 mL/min for both mobile phases.

The structures appear in SMILES notation.

What is called AUC is concentration integrated over time. A lower AUC goes with low exposure. One may read the half-life as how long it takes for the measured level to halve. Higher therefore signals slow decline. By Cmax is commonly meant the peak of the concentration-time curve.

As to `CCCCN1CCCCC1C(=O)Nc1c(C)cccc1C` (stereo not shown) [BU, Bupivacaine], where the note is “Blood”, the AUC is 1370 ng·h/mL and the half-life worked out at 4 ± 2 min. Moreover, where the note is “Brain”, the area under the curve (AUC) is 250 ng·h/mL and the Cmax stood at 560 ± 130 ng/mL.

These data come from US9173877B1, “Compositions and methods for the treatment of local pain” (CELLIX BIO PRIVATE LIMITED, priority 2014, dated 2015).
